Laboratory results reported in EP4458916A1, “PHOTOCATALYTICALLY ACTIVE COATING COMPOSITION, METHOD FOR THE PRODUCTION THEREOF AND USE THEREOF” (priority 2023, dated 2024).
Like-named read-outs stand apart in the source and are kept apart here.

Assays:
[1] = Immersion test: binding / wash-out of photocatalysts from SolGel coatings (1 h deionised water, UV-VIS signal loss); format: physicochemical; conditions: Rezeptur 5 coating on glass, dye 10 bis 40 mM; 1 h deionised water pH 6 ± 1, 22 ± 3 °C; relative UV-VIS signal loss at absorption maximum
Description: Für alle Untersuchungen wurden nach Beispiel 8 beschichtete Glasträger verwendet.
Um das Auswaschen der verschiedenen Farbstoffe in den Sol-Gel-Beschichtungen zu beurteilen wurde ein Immersionstest in vollentsalztem Wasser mit einem pH-Wert von (6 ± 1) und einer Wassertemperatur von (22 ± 3) °C für eine Stunde durchgeführt. Dazu wurden zunächst Schichten (Rezeptur 5, Beispiel 4, aufgefüllt mit 3,0 mL 2-Propanol; sh. Tabelle 3) mit erhöhter Farbstoffkonzentration (10 bis 40 mM; um die notwendige Auflösung bei der dünnen Schicht zu erreichen) auf Glas-Objektträgern erzeugt. Diese wurden nach dem Ablüften bei Raumtemperatur (30 min) eine Stunde bei 60°C nachgehärtet. Anschließend wurden die Schichten direkt im UV-VIS-Spektrometer vermessen. Die Ausgangswerte (Absorptionsmaximum des jeweiligen Farbstoffs) sollten dabei zwischen 0,05 A.U. und 1,50 A.U. liegen.
Nach einer Stunde in VE-Wasser wurden die Prüfkörper getrocknet und erneut gemessen. Aus den beiden Messungen wurde ein relativer Signalverlust in Prozent bei dem farbstoffspezifischen Absorptionsmaximum bestimmt.
Dieser Immersionstest diente dazu, das Auswaschverhalten verschiedener Farbstoffe aus Beschichtungssystemen zu beurteilen. Weiter soll er dabei helfen, verschiedene Farbstoffklassen oder verschiedene Farbstoffderivate einer Farbstoffklasse bezüglich dieser Charakteristik miteinander zu vergleichen. Die Ergebnisse sind in den folgenden Tabellen sortiert nach Stoffgruppen zusammengefasst: […]

[2] = system: S.aureus; format: cell-based; conditions: for Log10 Reduktion Probe / Log10 Reduktion Dunkelkontrolle: label = Katalysator of the coating, Rezeptur 2 nach Beispiel 2c on Melamin with S-25a 2 mM
[3] = system: Bakterien; assay: Room light tests (Raumlichtversuche): antimicrobial efficacy at 10 µW/cm^2 for 24 h; format: cell-based; conditions: Farbstoff 5 mM, coating Rezeptur 3, Beispiel 2a (2,5 eq aqueous boric acid, 50 mM)
Description: Um die antimikrobielle Wirksamkeit in einem realen Szenario abzuschätzen, wurden sogenannte Raumlichtversuche durchgeführt. Dazu wurden die mit Bakterien versetzten Probenträger mit einer, für Innenräume repräsentativen Lichtintensität von 10 µW/cm^2 für einen Zeitraum von 24 h bestrahlt.
Herstellung der Beschichtung erfolgte gemäß Beispiel 2a (2,5 eq wässrige Borsäure, 50 mM), mit Rezeptur 3. Die Ergebnisse sind in der Tabelle 63 zusammengefasst. Tabelle 63: Antimikrobielle Wirksamkeit bei Raumlichtbedingungen

[4] = system: S. enterica; assay: Bacteria test following modified ISO 22196, photodynamic effect of different photocatalysts in the SolGel coating on S. enterica; format: cell-based; conditions: Rezeptur 4 nach Beispiel 5 on Melamin, 4 h
Text: (§1) Die Bestimmung der antimikrobiellen Aktivität erfolgte nach einer modifizierten Version der ISO 22196:2011-08 ("Messung von antibakterieller Aktivität auf Kunststoff- und anderen porenfreien Oberflächen", Ausgabedatum: 2011-08).
(§2) Bei der Testdurchführung wurde ein dünner Flüssigkeitsfilm, in dem die Bakterien enthalten sind (1,25 x 10^4 /cm2), direkt auf die Probekörper (2,5 cm x 2,5 cm) aufgebracht. Direkt nach Beimpfung wurden von der Nullprobe die Bakterien von den Probekörperoberflächen mittels Ultraschall und Vortexen abgelöst und die Keimzahl (KBE (engl. CFU), Kolonie-bildende Einheit) bestimmt (t0-Wert). Ein weiterer Satz Nullproben und antimikrobiell ausgestatteter Proben wurden mit Bakterien im Flüssigkeitsfilm bei Raumtemperatur inkubiert. Nach 4 h wurden überlebende Bakterien von den Probekörperoberflächen mittels Ultraschall und Vortexen abgelöst und die Keimzahl bestimmt (t4-Wert).
(§3) Im Unterschied zu der in der ISO 22196:2011-08 beschriebenen Methode wurde das Inokulum nicht mit einer Folie abgedeckt und die Inkubationszeit von 24 auf 4 Stunden reduziert. Weiterhin wurden die Platten der Proben 3 und 4 mit Licht mit einer Intensität von 300 µW/cm2 belichtet.
(§4) Der Bakterientest wurde in Anlehnung an ISO 22196 nach oben beschriebener Methode durchgeführt. Die Ergebnisse sind Tabelle 57a bis 57b dargestellt. Tabelle 57a: Photodynamische Wirkung verschiedener Katalysatoren in der SolGel Beschichtung gegen S.aureus

[5] = system: I. monocytoqenes; assay: Bacteria test following modified ISO 22196, photodynamic effect of different photocatalysts in the SolGel coating on I. monocytoqenes; format: cell-based; conditions: Rezeptur 4 nach Beispiel 5 on Melamin, 4 h
Text: as §1, §2, §3, §4

| Molecule | Verlust durch Auswaschen [1] | further results |
| --- | --- | --- |
| 2,7,12-Tris(pyridinio-p-tolyl)-17-(p-(methoxymethyl)phenyl) porphycen bromid [reference compound] | > 70% | – |
| CC(O)C(=O)[O][Al]([O]C(=O)C(C)O)[O]C(=O)C(C)O (centres unmarked) [AL] | – | Log10 Reduktion Probe ([2]; 4 h, 300 µW/cm2): 3,3±0,4; Log10 Reduktion Dunkelkontrolle ([2]; 4 h, dark): 0,2±0,7 |
| O=P(N1CCCC1)(N1CCCC1)N1CCCC1 [PO] | – | Log10 Reduktion Probe ([2]; 4 h, 300 µW/cm2): 3,6±0,3; Log10 Reduktion Dunkelkontrolle ([2]; 4 h, dark): 0,0±0,1 |
| NCCCOC1=CC(=O)c2cccc3cccc1c23 [S-08] | 13% | – |
| O=C1C(COc2ccc(O)cc2)=Cc2cccc3cccc1c23 [S-12] | 3% | – |
| O=C1C(COc2ccc(CO)cc2)=Cc2cccc3cccc1c23 [S-13] | – | log reduction at 5000 µM ([3]; 24 h, dark control, read-out: Log10 Reduktion Dunkelkontrolle): 0.9; log reduction at 5000 µM ([3]; illuminated 10 µW/cm^2 for 24 h, read-out: Log10 Reduktion 24 h): 1.9 |
| O=C1C(C[n+]2ccccc2)=Cc2cccc3cccc1c23 [S-24a] | 9% | S. enterica Log10 Reduktion Probe ([4]; 300 µW/cm2): 4,5±0,8; S. enterica Log10 Reduktion Dunkelkontrolle ([4]; dark): 0,0±0,2; Photodynamische Wirkung gegen S.aureus (Log10 Reduktion), compared with the values of S-25a ([2]; Rezeptur 2, Beispiel 2a, filled up with IPA 1:2/1:5/1:8, dye content varied (Tabelle 56)): im Rahmen des Fehlers die gleichen Werte; I. monocytoqenes Log10 Reduktion Probe ([5]; 300 µW/cm2): 4,5±0,3; I. monocytoqenes Log10 Reduktion Dunkelkontrolle ([5]; dark): 0,0±0,3 |
| CCCCCCCCCCOc1ccc(/C=C/C(=O)CC(=O)/C=C/c2ccc(OCCCCCCCCCC)cc2)cc1 [S-52a] | 13% | – |
| COCCC1=Cc2nc1ccc1[nH]c(cc1CCOC)c1nc(c(O)cc3[nH]c2cc3CCOC)C(CCOC)=C1 [S-58a, 9-Hydroxy-2,7,12,17-tetra-(beta-methoxyethyl)porphycen] | 4% | S. aureus Log10 Reduktion Probe ([2]; Rezeptur 4 nach Beispiel 5 on Melamin, 4 h, 300 µW/cm2): 1,4±0,1; S. aureus Log10 Reduktion Dunkelkontrolle ([2]; Rezeptur 4 nach Beispiel 5 on Melamin, 4 h, dark): 0,0±0,1 |
| CC(=O)OCCC1=Cc2nc1ccc1[nH]c(cc1CCOC(C)=O)c1nc(c(O)cc3[nH]c2cc3CCOC(C)=O)C(CCOC(C)=O)=C1 [S-60a] | 8% | – |
| CC(=O)OCCC1=Cc2nc1ccc1[nH]c(cc1CCOC(C)=O)c1nc3c(cc4[nH]c2cc4CCOC(C)=O)OCCC3=C1 [S-60b] | 2% | – |
| COCCC1=Cc2nc1ccc1[nH]c(cc1CCOC)c1nc(c(OCCCO)cc3[nH]c2cc3CCOC)C(CCOC)=C1 [S-61a] | 6% | – |
| COCCC1=Cc2nc1ccc1[nH]c(cc1CCOC)c1nc(c(OCCCN)cc3[nH]c2cc3CCOC)C(CCOC)=C1 [S-62] | 3% | – |
| COCCC1=Cc2nc1ccc1[nH]c(cc1CCOC)c1nc(c(OCCCC(=O)O)cc3[nH]c2cc3CCOC)C(CCOC)=C1 [S-66a] | 3% | – |
| COCCC1=Cc2nc1ccc1[nH]c(cc1CCOC)c1nc(c(OCCC[Si](OC)(OC)OC)cc3[nH]c2cc3CCOC)C(CCOC)=C1 [S-68] | 9% | – |
| COCCC1=Cc2nc1c(O)cc1[nH]c(cc1CCOC)c1nc(c(NC(C)=O)cc3[nH]c2cc3CCOC)C(CCOC)=C1 [S-70] | 4% | – |
| COCCC1=Cc2nc1ccc1[nH]c(cc1CCOC)c1nc(c(OC(=O)CCC(N)C(=O)O)cc3[nH]c2cc3CCOC)C(CCOC)=C1 (centres unmarked) [S-74] | 11% | – |
| COCCC1=Cc2nc1ccc1[nH]c(cc1CCOC)c1nc(c(OCCCNC(=O)CCC(N)C(=O)O)cc3[nH]c2cc3CCOC)C(CCOC)=C1 (centres unmarked) [S-75] | 9% | – |
| OCCC1=Cc2nc1ccc1[nH]c(cc1CCO)c1nc(c(O)cc3[nH]c2cc3CCO)C(CCO)=C1 [Verbindungen S-59a] | 8% | – |
